Read-outs that look alike come from different tables or passages of the source.
What was measured:
DRB1*0901 (DR9) = target: T1, DRB1*0901 (DR9) (Homo sapiens, UniProt P01903+P01911, A100R/A103E/D57H/D86V/F55Y/F60I/F76Y/I96F/K127E/L162R/M171V/P40D/Q125H/Q99R/R33Q/R42F/S133A/S66N/T210M/V115G/W38K/Y107V/Y59G/Y89S); experiment: biochemical; format: binding; settings: Binding Capacity (IC 50% nM) Other Alleles DR9
T1 construct: Epstein-Barr virus (EBV) transformed homozygous cell lines were used as sources; endogenous in cells

DRB1*0101 (DR1) = target: T2, DRB1*0101 (DR1) (Homo sapiens, UniProt P01903+P01911, A100R/D57E/F55L/F60I/F76Y/I96L/L162R/M171V/P40L/Q125E/R42F/V115G/Y59C); experiment: biochemical; format: binding; settings: Binding Capacity (IC 50% nM) DR1,4,7 DRB1
T2 construct: Epstein-Barr virus (EBV) transformed homozygous cell lines were used as sources; endogenous in cells; host or cells: LG2 (EBV-transformed homozygous B cell line)

DRB1*0401 (DR4w4) = target: T3, DRB1*0401 (DR4w4) (Homo sapiens, UniProt P01903+P01911, A100K/A169T/F76Y/I96L/K127E/L162R/M171V/N62H/P40V/Q125Y/R42H/S133A/S149N/S66Y/V115G/V209L/W38E); experiment: biochemical; format: binding
T3 construct: Epstein-Barr virus (EBV) transformed homozygous cell lines were used as sources; endogenous in cells; host or cells: PREISS (EBV-transformed homozygous B cell line)

DRB1*1501 (DR2w2b) = target: T4, DRB1*1501 (DR2w2b) (Homo sapiens, UniProt P01903+P01911); experiment: biochemical; format: binding
T4 construct: expressed in transfected cells; host or cells: transfected fibroblasts L466.1

DRB1*0802 (DR8w2) = target: T5, DRB1*0802 (DR8w2) (Homo sapiens, UniProt P01903+P01911, A100R/A103L/A169T/F76Y/H45Y/I96F/K41T/L162R/M171V/P40S/Q125H/Q178H/Q39Y/Q99D/R218S/R42G/S66Y/V115G/W38E); experiment: biochemical; format: binding
T5 construct: Epstein-Barr virus (EBV) transformed homozygous cell lines were used as sources; endogenous in cells; host or cells: OLL (EBV-transformed homozygous B cell line)

DRB1*1101 (DR5w11) = target: T6, DRB1*1101 (DR5w11) (Homo sapiens, UniProt P01903+P01911, A100R/A169T/A87E/I96F/K41T/L162R/M171V/P40S/Q125H/Q178H/Q39Y/Q99D/R42S/S66Y/T262R/V115G/W38E); experiment: biochemical; format: binding
T6 construct: Epstein-Barr virus (EBV) transformed homozygous cell lines were used as sources; endogenous in cells; host or cells: SWEIG (EBV-transformed homozygous B cell line)
T6 sequence (P01903 26-254, other chains not shown): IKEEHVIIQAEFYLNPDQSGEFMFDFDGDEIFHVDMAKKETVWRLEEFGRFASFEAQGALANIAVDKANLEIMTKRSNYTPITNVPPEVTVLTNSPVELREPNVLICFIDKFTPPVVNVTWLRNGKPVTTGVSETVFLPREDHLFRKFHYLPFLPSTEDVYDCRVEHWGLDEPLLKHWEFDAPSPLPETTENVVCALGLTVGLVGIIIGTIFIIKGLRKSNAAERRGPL

DRB1*0301 (DR3w17) [1] = target: T7, DRB1*0301 (DR3w17) (Homo sapiens, UniProt P01903+P01911, A100K/A102G/A103R/A169T/F55Y/I96L/K41T/L162R/M171V/P40S/Q125H/Q178H/Q39Y/R42S/S66N/T106N/T262R/W38E/Y61H); experiment: biochemical; settings: Binding Capacity (IC50% nM) DR3
DRB1*0405 (DR4w15) = target: T8, DRB1*0405 (DR4w15) (Homo sapiens, UniProt P01903+P01911, A100R/A169T/D86S/F76Y/I96L/K127E/L162R/M171V/N62H/P40V/Q125Y/R42H/S133A/S149N/S66Y/V115G/V209L/W38E); experiment: biochemical; format: binding
T8 construct: Epstein-Barr virus (EBV) transformed homozygous cell lines were used as sources; endogenous in cells; host or cells: KT3 (EBV-transformed homozygous B cell line)

DRB5*0101 (DR2w2a) = target: T9, DRB5*0101 (DR2w2a) (Homo sapiens, UniProt P01903+Q30154); experiment: biochemical; format: binding
T9 construct: Epstein-Barr virus (EBV) transformed homozygous cell lines were used as sources; endogenous in cells; host or cells: GM3107 (EBV-transformed homozygous B cell line)

DRB1*0301 (DR3w17) [2] = target: T7, DRB1*0301 (DR3w17); settings: read-out: Binding Capacity (IC 50% nM) Other Alleles DR3
DRB1*0701 (DR7) = target: T10, DRB1*0701 (DR7) (Homo sapiens, UniProt P01903+P01911, A100R/A102G/A103Q/D57E/D86V/E43K/F76Y/K127E/L162R/M171V/P40G/Q125H/Q99D/R33Q/R42Y/R54Q/S133A/S66F/T210M/V115G/Y107V/Y59L/Y89S); experiment: biochemical; format: binding; settings: Binding Capacity (IC 50% nM) DR1,4,7 DR7
T10 construct: Epstein-Barr virus (EBV) transformed homozygous cell lines were used as sources; endogenous in cells; host or cells: PITOUT (EBV-transformed homozygous B cell line)

DRB1*1302 (DR6w19) = target: T11, DRB1*1302 (DR6w19) (Homo sapiens, UniProt P01903+P01911, A100E/A169T/K41T/L162R/M171V/P40S/Q125H/Q178H/Q39Y/Q99D/R42S/S66N/T262R/V115G/W38E/Y61H); experiment: biochemical; format: binding; settings: Binding Capacity (IC 50% nM) Other Alleles DR6w19
T11 construct: Epstein-Barr virus (EBV) transformed homozygous cell lines were used as sources; the source of Class II molecules the EBV transformed homozygous cell line H0301; endogenous in cells; host or cells: H0301 (EBV-transformed homozygous B cell line)

DRB1*1201 (DR5w12) = target: T12, DRB1*1201 (DR5w12) (Homo sapiens, UniProt P01903+P01911, A100R/A169T/D57E/D86V/F55L/H45Y/K41T/L162R/M171V/P40S/Q125H/Q178H/Q39Y/Q99D/R42G/S66L/T262R/V114A/V67L/W38E/Y59H/Y61H/Y89S); experiment: biochemical; format: binding
T12 construct: Epstein-Barr virus (EBV) transformed homozygous cell lines were used as sources; endogenous in cells; host or cells: Herluf (EBV-transformed homozygous B cell line)

[3] = Binding Capacity (IC50% nM) DR5w12
[4] = read-out: Binding Capacity (IC 50% nM) Other Alleles DR5w12

Compound	IC50 (DRB1*0901 (DR9)) [nM]	IC50 (DRB1*0101 (DR1)) [nM]	IC50 (DRB1*0301 (DR3w17) [1]) [nM]	IC50 (DRB1*0301 (DR3w17) [2]) [nM]	IC50 (DRB1*0701 (DR7)) [nM]	IC50 (DRB1*1302 (DR6w19)) [nM]	IC50 (DRB1*1201 (DR5w12); [3]) [nM]	IC50 (DRB1*1201 (DR5w12); [4]) [nM]	also measured
CC(C)C[C@H](NC(=O)CNC(=O)[C@H](C)NC(=O)[C@H](CC(C)C)NC(=O)[C@@H](NC(=O)[C@H](CO)NC(=O)[C@@H](NC(=O)[C@H](C)NC(=O)[C@H](CC(C)C)NC(=O)[C@H](CCCCN)NC(=O)[C@H](Cc1ccc(O)cc1)NC(=O)[C@@H](N)CCCCN)[C@@H](C)O)C(C)C)C(=O)N[C@@H](CC(C)C)C(=O)NCC(=O)N[C@@H](CC(N)=O)C(=O)O [Peptide F107.09]	< 1000	< 1000	> 10000	> 1000	< 1000	< 1000	> 10000	> 1000	IC50 (DRB1*0401 (DR4w4); Binding Capacity (IC 50% nM) DR1,4,7 DR4w4): < 1000 nM; IC50 (DRB1*1501 (DR2w2b); read-out: Binding Capacity (IC 50% nM) Other Alleles DR2w2b): > 1000 nM; IC50 (DRB1*0802 (DR8w2); Binding Capacity (IC 50% nM) Other Alleles DR8w2): < 1000 nM; IC50 (DRB1*1101 (DR5w11); Binding Capacity (IC 50% nM) Other Alleles DR5w11): < 1000 nM; IC50 (DRB1*0405 (DR4w15); Binding Capacity (IC 50% nM) Other Alleles DR4w15): < 1000 nM; IC50 (DRB5*0101 (DR2w2a); Binding Capacity (IC 50% nM) Other Alleles DR2w2a): < 1000 nM
CC(C)C[C@H](NC(=O)CNC(=O)[C@H](C)NC(=O)[C@@H](N)CC(C)C)C(=O)N[C@@H](CC(C)C)C(=O)NCC(=O)N[C@@H](CC(N)=O)C(=O)N[C@H](C(=O)N[C@@H](CO)C(=O)N[C@H](C(=O)N[C@H](C(=O)N[C@@H](CC(C)C)C(=O)N[C@@H](CC(C)C)C(=O)NCC(=O)NCC(=O)O)C(C)C)[C@@H](C)O)C(C)C [Peptide F107.10]	< 1000	< 1000	> 10000	> 1000	< 1000	< 1000	> 10000	> 1000	IC50 (DRB1*0401 (DR4w4); read-out: Binding Capacity (IC 50% nM) DR1,4,7 DR4w4): > 1000 nM; IC50 (DRB1*1501 (DR2w2b); Binding Capacity (IC 50% nM) Other Alleles DR2w2b): < 1000 nM; IC50 (DRB1*0802 (DR8w2); Binding Capacity (IC50% nM) DR8w2): > 10000 nM; IC50 (DRB1*0802 (DR8w2); read-out: Binding Capacity (IC 50% nM) Other Alleles DR8w2): > 1000 nM; IC50 (DRB1*1101 (DR5w11); Binding Capacity (IC50% nM) DR5w11): > 10000 nM; IC50 (DRB1*1101 (DR5w11); read-out: Binding Capacity (IC 50% nM) Other Alleles DR5w11): > 1000 nM; IC50 (DRB1*0405 (DR4w15); read-out: Binding Capacity (IC 50% nM) Other Alleles DR4w15): > 1000 nM; IC50 (DRB5*0101 (DR2w2a); Binding Capacity (IC50% nM) DR2w2a): > 10000 nM; IC50 (DRB5*0101 (DR2w2a); read-out: Binding Capacity (IC 50% nM) Other Alleles DR2w2a): > 1000 nM

— patent publication US6413517B1, “Identification of broadly reactive DR restricted epitopes” (Epimmune, Inc., priority 1997, dated 2002)
